This test concerns the target S-adenosylmethionine synthase isoform type-2 (Homo sapiens) (UniProt P31153). The test can be described thus: PubChem AID 508. The note with it: recombinant MAT2A, DSF SYPRO orange Tm shift; at 10 µM; protein 2 µM; buffer 25 mM HEPES; pH 7.5; 75mM NaCl; 100uM ATPgammaS; Adenosine 5'-[gamma-thio]triphosphate tetralithium salt; hits give high values.

SMILES strings stand for the structures.

Chain of S-adenosylmethionine synthase isoform type-2 (Homo sapiens) (P31153 whole entry, looked up, canonical isoform): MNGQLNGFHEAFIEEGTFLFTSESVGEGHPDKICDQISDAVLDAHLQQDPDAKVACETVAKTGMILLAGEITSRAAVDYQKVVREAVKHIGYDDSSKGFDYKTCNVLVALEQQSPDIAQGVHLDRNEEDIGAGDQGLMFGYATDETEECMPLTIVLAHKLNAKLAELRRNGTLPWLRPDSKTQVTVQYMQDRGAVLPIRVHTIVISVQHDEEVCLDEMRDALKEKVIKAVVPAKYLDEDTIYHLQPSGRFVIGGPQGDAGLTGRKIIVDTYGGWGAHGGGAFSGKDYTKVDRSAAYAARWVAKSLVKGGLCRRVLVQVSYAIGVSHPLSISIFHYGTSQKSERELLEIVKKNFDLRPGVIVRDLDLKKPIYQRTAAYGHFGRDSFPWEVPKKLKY

`CSCCC(N)C(=O)O` (stereo unspecified): the Tm shift is 2.1 Celsius.

The record behind these values is PubChem BioAssay AID508.
